In paper PMC7232442, “Biofilm Eradication by Symmetrical Selenoesters for Food-Borne Pathogens” (Microorganisms, 2020):
Converted amounts (≈) assume the structure as drawn. “Also recorded” adds a separate entry of the source.

Experiments:
[1] = tested on: S. Typhimurium SE01 Wild-Type; assay: Real-time ethidium bromide accumulation assay; type: cell-based, Salmonella enterica serovar Typhimurium; details: ½ MIC, minute 60
Experimental: (§1) The impact of compounds on EB accumulation was determined by the automated EB method using a CLARIOstar Plus plate reader (BMG Labtech, UK). Firstly, the bacterial strain was incubated until it reached an optical density (OD) of 0.6 at 600 nm. The culture was washed with phosphate buffered saline (PBS; pH 7.4) and centrifuged at 13,000× g for 3 min, the cell pellet was re-suspended in PBS. The compounds were added at ½ MIC concentration to PBS containing a non-toxic concentration of EB (1 µg/mL). Then, 50 μL of the EB solution containing the compound were transferred into 96-well black microtiter plate (Greiner Bio-One Hungary Kft, Hungary), and 50 μL of bacterial suspension (OD600 0.6) were added to the each well. Then, the plates were placed into the CLARIOstar plate reader, and the fluorescence was monitored at excitation and emission wavelengths of 530 nm and 600 nm every minute for one hour on a real-time basis. From the real-time data, the activity of the compounds, namely the relative fluorescence index (RFI) of the last time point (minute 60) of the EB accumulation assay, was calculated according to the following formula:RFI = (RFtreated − RFuntreated)/RFuntreated(2) where RFtreated is the relative fluorescence (RF) at the last time point of EB retention curve in the presence of an inhibitor, and RFuntreated is the RF at the last time point of the EB retention curve of the untreated control having the solvent control (DMSO).

[2] = tested on: S. Typhimurium SE02 ΔacrB; assay: Real-time ethidium bromide accumulation assay; type: cell-based, Salmonella enterica serovar Typhimurium; details: S. Typhimurium SE02 ΔacrB; ½ MIC; minute 60
Experimental: as §1

[3] = tested on: S. Typhimurium SE01 Wild-Type; assay: MIC determination by microdilution method; type: cell-based, Salmonella enterica serovar Typhimurium; details: Salmonella enterica; S. Typhimurium SE01 wild-type; read-out: MIC
Experimental: (§2) The minimum inhibitory concentrations (MICs) of compounds were determined according to the Clinical and Laboratory Standard Institute guidelines (CLSI). MIC values of the compounds were determined by visual inspection. The solvent was also assayed to ensure there was no antibacterial effect and the concentration (1 v/v%) applied in the assays had no antibacterial activity. DMSO was used at subinhibitory concentration (1 v/v%) in the assays.

[4] = tested on: S. Typhimurium SE03 ΔacrA; assay: MIC determination by microdilution method; type: cell-based, Salmonella enterica serovar Typhimurium; details: Salmonella enterica
Experimental: as §2

[5] = tested on: S. Typhimurium SE02 ΔacrB; assay: MIC determination by microdilution method; type: cell-based, Salmonella enterica serovar Typhimurium; details: Salmonella enterica
Experimental: as §2

[6] = tested on: S. Typhimurium SE39 ΔtolC; assay: MIC determination by microdilution method; type: cell-based, Salmonella enterica serovar Typhimurium; details: Salmonella enterica
Experimental: as §2

[7] = tested on: S. Typhimurium SE03 ΔacrA; assay: Real-time ethidium bromide accumulation assay; type: cell-based, Salmonella enterica serovar Typhimurium; details: S. Typhimurium SE03 ΔacrA; ½ MIC; minute 60
Experimental: as §1

[8] = tested on: S. Typhimurium SE39 ΔtolC; assay: Real-time ethidium bromide accumulation assay; type: cell-based, Salmonella enterica serovar Typhimurium; details: S. Typhimurium SE39 ΔtolC; ½ MIC; minute 60
Experimental: as §1

S. aureus MRSA 272123 [9] = assay: Resistance modulation assay (checkerboard) with TET or CIP; type: cell-based, Staphylococcus aureus; details: for Interaction with CIP: MRSA strain; for X-fold reduction of MIC of CIP: S. aureus MRSA 272123, compound at ½ MIC, with CIP
Experimental: (§3) The resistance modulation effect of compounds with ciprofloxacin (CIP) and tetracycline (TET) antibiotics were evaluated by the checkerboard method on S. aureus strains. Briefly, CIP or TET was diluted in a 96-well microtiter plate by two-fold serial dilution in MH broth and then the compounds were added at subinhibitory concentrations (½ MIC). In this assay, only the tested compounds with well-defined MIC values were tested. Finally, 10^−4 dilution of the overnight bacterial culture in MH was added to each well. The final volume was 200 µL in each well. The microtiter plates were incubated at 37 °C for 18 h. MIC values in the presence of the antibiotics alone and in combination with Se-compounds were determined by visual inspection.

S. aureus ATCC 25923 [10] = assay: as above; type: cell-based, Staphylococcus aureus
Experimental: as §3

S. aureus ATCC 25923 [11] = assay: Real-time ethidium bromide accumulation assay; type: cell-based, Staphylococcus aureus; design: key to Relative Fluorescence Index (RFI): RFI = (RFtreated − RFuntreated)/RFuntreated at minute 60; details: for Relative Fluorescence Index (RFI): S. aureus ATCC 25923, ½ MIC, minute 60; for EPI activity (in words): reference (sensitive) S. aureus, 60 min
Experimental: as §1

S. aureus MRSA 272123 [12] = assay: MIC determination by microdilution method; type: cell-based; details: Staphylococcus aureus; S. aureus MRSA 272123; read-out: MIC
Experimental: as §2

[13] = tested on: Staphylococcus aureus ATCC 25923; assay: MIC determination by microdilution method; type: cell-based; details: S. aureus ATCC 25923
Experimental: as §2

S. aureus MRSA 272123 [14] = assay: Real-time ethidium bromide accumulation assay; type: cell-based, Staphylococcus aureus; details: for Relative Fluorescence Index (RFI): S. aureus MRSA 272123, ½ MIC, minute 60; for EPI activity (in words): resistant S. aureus MRSA, 60 min
Experimental: as §1

[15] = tested on: MRC-5 human embryonal lung fibroblast cells; assay: Cytotoxicity assay (MTT); type: cell-based; details: MRC-5 cells
Experimental: The adherent MRC-5 human embryonal lung fibroblast cells were cultured in 96-well flat-bottomed microtiter plates, using EMEM supplemented with 10% heat-inactivated fetal bovine serum. The density of the cells was adjusted to 1 × 10^4 cells in 100 μL per well, the cells were seeded overnight at 37 °C, 5% CO2, then the medium was removed from the plates containing the cells, and the dilutions of selenocompounds previously made in a separate plate were added to the cells in 200 μL.
The culture plates were incubated at 37 °C for 24 h; at the end of the incubation period, 20 μL of MTT (thiazolyl blue tetrazolium bromide, Sigma) solution (from a stock solution of 5 mg/mL) was added to each well. After incubation at 37 °C for 4 h, 100 μL of sodium dodecyl sulfate (SDS; Sigma) solution (10% in 0.01 M HCI) was added to each well and the plates were further incubated at 37 °C overnight. Cell growth was determined by measuring the optical density (OD) at 540/630 nm with Multiscan EX ELISA reader (Thermo Labsystems, Cheshire, WA, USA). Inhibition of the cell growth was determined according to the formula below:IC50 = 100 − [(ODsample − ODmedium control)/(ODcell control − ODmedium control)] × 100(1)
Results are expressed in terms of IC50, defined as the inhibitory dose that reduces the growth of the cells exposed to the tested compounds by 50%.

S. aureus MRSA = assay: Biofilm formation using crystal violet; type: cell-based, Staphylococcus aureus
Experimental: (§4) The anti-biofilm effect of the tested compounds against S. aureus strains and wild-type S. Typhimurium SE01 was measured using crystal violet (CV; 0.1% (v/v)). This dye is used to detect the total biofilm biomass formed. Overnight cultures were diluted to OD of 0.1 at 600 nm in TSB medium. Then, the bacterial cultures were added to 96-well microtiter plates and the compounds were added at ½ MIC concentration. The final volume was 200 μL in each well. The microtiter plates were incubated at 30 °C for 48 h with gentle agitation (100 rpm). After the incubation period, TSB medium was discarded, and the plates were washed with tap water to remove unattached cells. Then 200 μL crystal violet was added to the wells and incubated for 15 min at room temperature. Then, CV was removed from the wells and the plates were washed again with tap water, and 200 μL of 70% ethanol was added to the wells. Finally, the biofilm formation was determined by measuring the OD at 600 nm using Multiscan EX ELISA plate reader (Thermo Labsystems, Cheshire, WA, USA). The anti-biofilm effect of compounds was expressed in the percentage (%) of decrease in biofilm formation.

[16] = tested on: reference S. aureus strain (ATCC 25923); assay: Biofilm formation using crystal violet; type: cell-based, Staphylococcus aureus
Experimental: as §4

[17] = tested on: C. violaceum 026 sensor strain with AHL producer E. cloacae 31298 (violacein production); assay: Quorum sensing (QS) inhibition, parallel inoculation disk diffusion; type: cell-based, Chromobacterium violaceum; details: disc with 10 μL compound, starting concentration ½ MIC; 24–48 h
Experimental: The QS inhibitory effect of selenocompounds was examined on the AHL producer E. cloacae strain and C. violaceum sensor bacterial strain. These strains were inoculated in parallel. The QS inhibition was monitored by agar diffusion method on LB* agar plate as described previously. Filter paper discs (7.0 mm in diameter) were placed between the parallel inoculated strains and impregnated with 10 μL compounds. Starting concentration of the compounds was ½ MIC. The agar plates were incubated at room temperature (20 °C) for 24–48 h and the inhibition of violacein production was measured.

[18] = Staphylococcus aureus, ATCC25923

Compound	Relative Fluorescence Index (RFI) [1]	Relative Fluorescence Index (RFI) [2]	MIC [3] [µM]	MIC [4] [µM]	MIC [5] [µM]	MIC [6] [µM]	Relative Fluorescence Index (RFI) [7]	Relative Fluorescence Index (RFI) [8]	Interaction with CIP (S. aureus MRSA 272123 [9])	X-fold reduction of MIC of CIP (S. aureus MRSA 272123 [9]) [fold]	Relative Fluorescence Index (RFI) (S. aureus ATCC 25923 [11])	EPI activity (in words) (S. aureus ATCC 25923 [11])	MIC (S. aureus MRSA 272123 [12]) [µM]	MIC [13] [µM]	MIC [13, 18] [µM]	Relative Fluorescence Index (RFI) (S. aureus MRSA 272123 [14])	EPI activity (in words) (S. aureus MRSA 272123 [14])	IC50 ([15]; Homo sapiens, MRC5, 24 h) [µM]	IC50 ([15]; 24 h) [µM]	QS zone of inhibition [17] [mm]	also measured
COC(=O)C[Se]C(=O)c1cc(C(=O)[Se]CC(=O)OC)cc(C(=O)[Se]CC(=O)OC)c1 [Se-E3]	0.26	0.08	> 100	> 100	> 100	> 100	0.27	0.25	synergism	2	4.15	most prominent EPI activity; also recorded: significantly effective pump inhibition	100 (≈ 61.5 µg/mL)	12.5 (≈ 7.69 µg/mL)	12.5 (≈ 7.69 µg/mL)	0.47	most prominent EPI activity; also recorded: significantly effective pump inhibition	> 75	76.6		X-fold reduction of MIC of TET (S. aureus ATCC 25923 [10]; S. aureus ATCC 25923, compound at ½ MIC, with TET): 2 fold; Interaction with TET (S. aureus ATCC 25923 [10]; methicillin-susceptible S. aureus ATCC 25923): synergism; Anti-biofilm effect (in words) (S. aureus MRSA): significant biofilm inhibition; Anti-biofilm effect (in words) ([16]; sensitive (reference) S. aureus): significant biofilm inhibition
CC(=O)C[Se]C(=O)c1ccc(C(=O)[Se]CC(C)=O)cc1 [Se-K1]	−0.16	0.10	50 (≈ 20.2 µg/mL)				0.17	0.27	synergism	2	0.1		1.56 (≈ 0.631 µg/mL)	0.39 (≈ 0.158 µg/mL)	0.39 (≈ 0.158 µg/mL)	−0.15		0.54		37	
COC(=O)C[Se]C(=O)c1ccc(C(=O)[Se]CC(=O)OC)cc1 [Se-E1]	−0.10	−0.03	> 100	> 100	> 100	> 100	0.03	0.15			0.98	effective	100 (≈ 43.6 µg/mL)	12.5 (≈ 5.45 µg/mL)	12.5 (≈ 5.45 µg/mL)	0.19	effective	> 75	77.9	41	
CC(=O)C[Se]C(=O)c1cccc(C(=O)[Se]CC(C)=O)c1 [Se-K2]	−0.04	0.13	50 (≈ 20.2 µg/mL)			100 (≈ 40.4 µg/mL)	0.20	0.26			0.11		1.56 (≈ 0.631 µg/mL)	0.39 (≈ 0.158 µg/mL)	0.39 (≈ 0.158 µg/mL)	−0.07		1.34		40	Anti-biofilm effect (in words) (S. aureus MRSA): promoted the biofilm formation; Biofilm inhibition ([16]; reference S. aureus, ½ MIC, 48 h): 30.3%
